Measured values published in PubChem BioAssay AID1963983 (Molecular Pharmacology Branch, DTP, NCI, 2024).
Where “and” joins values, the source holds several entries; their conditions need not be identical. Equal entries are not always repeated.

Test system: 186277-243-T-J2-PDC multi-cell spheroid viability
Assay: Anticancer human tumor 186277-243-T-J2-PDC patient-derived colon adenocarcinoma cell line growth inhibition [PI3K]
Conditions: for viability, T/C: stronger effect = lower value
Summary of the method: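 Three cell types, namely tumor cells, endothelial cells and mesenchymal stem cells, formed each spheroid. Combinations with four PI3K inhibitors were screened at clinically achievable concentrations decreasing by half-log, and spheroid viability was recorded.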

[1] = curve of first compound, second compound 0.00316 µM
[2] = curve of first compound, second compound 0.01 µM
[3] = curve of first compound, second compound 0.0316 µM
[4] = curve of first compound, second compound 0.1 µM
[5] = curve of first compound, second compound 0.316 µM
[6] = curve of first compound, second compound 1 µM
[7] = second compound 0.00316 µM, first compound 0.0316 µM
[8] = second compound 0.00316 µM, first compound 0.1 µM
[9] = second compound 0.00316 µM, first compound 0.316 µM
[10] = second compound 0.00316 µM, first compound 1 µM
[11] = second compound 0.00316 µM, first compound 3.16 µM
[12] = second compound 0.00316 µM, first compound 10 µM
[13] = second compound 0.01 µM, first compound 0.0316 µM
[14] = second compound 0.01 µM, first compound 0.1 µM
[15] = second compound 0.01 µM, first compound 0.316 µM
[16] = second compound 0.01 µM, first compound 1 µM
[17] = second compound 0.01 µM, first compound 3.16 µM
[18] = second compound 0.01 µM, first compound 10 µM
[19] = second compound 0.0316 µM, first compound 0.0316 µM
[20] = second compound 0.0316 µM, first compound 0.1 µM
[21] = second compound 0.0316 µM, first compound 0.316 µM
[22] = second compound 0.0316 µM, first compound 1 µM
[23] = second compound 0.0316 µM, first compound 3.16 µM
[24] = second compound 0.0316 µM, first compound 10 µM
[25] = second compound 0.1 µM, first compound 0.0316 µM
[26] = second compound 0.1 µM, first compound 0.1 µM
[27] = second compound 0.1 µM, first compound 0.316 µM
[28] = second compound 0.1 µM, first compound 1 µM
[29] = second compound 0.1 µM, first compound 3.16 µM
[30] = second compound 0.1 µM, first compound 10 µM
[31] = second compound 0.316 µM, first compound 0.0316 µM
[32] = second compound 0.316 µM, first compound 0.1 µM
[33] = second compound 0.316 µM, first compound 0.316 µM
[34] = second compound 0.316 µM, first compound 1 µM
[35] = second compound 0.316 µM, first compound 3.16 µM
[36] = second compound 0.316 µM, first compound 10 µM
[37] = second compound 1 µM, first compound 0.0316 µM
[38] = second compound 1 µM, first compound 0.1 µM
[39] = second compound 1 µM, first compound 0.316 µM
[40] = second compound 1 µM, first compound 1 µM
[41] = second compound 1 µM, first compound 3.16 µM
[42] = second compound 1 µM, first compound 10 µM
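Also: spheroids exposed to compounds for seven days before viability reading.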
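For viability, T/C in this document: 100% = DMSO vehicle control viability.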

CNC(=O)c1ccc(N2C(=S)N(c3ccc(C#N)c(C(F)(F)F)c3)C(=O)C2(C)C)cc1F + COc1c(OCCCN2CCOCC2)ccc2c3n(c(=NC(=O)c4cnc(N)nc4)nc12)CCN3
IC50 [1]: > 10000 nM
IC50 [2]: > 10000 nM
IC50 [3]: > 10000 nM
IC50 [4]: < 31.6 nM
IC50 [5]: < 31.6 nM
IC50 [6]: < 31.6 nM
viability, T/C [7]: 110%
viability, T/C [8]: 113%
viability, T/C [9]: 111%
viability, T/C [10]: 88.2%
viability, T/C [11]: 112%
viability, T/C [12]: 107%
viability, T/C [13]: 98.8%
viability, T/C [14]: 121%
viability, T/C [15]: 103%
viability, T/C [16]: 94.8%
viability, T/C [17]: 112%
viability, T/C [18]: 115%
viability, T/C [19]: 88.9%
viability, T/C [20]: 85.6%
viability, T/C [21]: 81.3%
viability, T/C [22]: 81.7%
viability, T/C [23]: 95.3%
viability, T/C [24]: 73.4%
viability, T/C [25]: 23.3%
viability, T/C [26]: 20.2%
viability, T/C [27]: 21.5%
viability, T/C [28]: 17.8%
viability, T/C [29]: 19.6%
viability, T/C [30]: 22.7%
viability, T/C [31]: 6.01%
viability, T/C [32]: 6.73%
viability, T/C [33]: 4.24%
viability, T/C [34]: 5.77%
viability, T/C [35]: 7.13%
viability, T/C [36]: 5.44%
viability, T/C [37]: 3.23%
viability, T/C [38]: 2.22%
viability, T/C [39]: 3.19%
viability, T/C [40]: 1.9%
viability, T/C [41]: 2.85%
viability, T/C [42]: 4.06%

C=CC(=O)N1CCN(c2nc(=O)n(-c3c(C)ccnc3C(C)C)c3nc(-c4c(O)cccc4F)c(F)cc23)C(C)C1 (stereo not drawn) + COc1c(OCCCN2CCOCC2)ccc2c3n(c(=NC(=O)c4cnc(N)nc4)nc12)CCN3
IC50 [1]: > 10000 nM
IC50 [2]: > 10000 nM
IC50 [3]: 1870 nM
IC50 [4]: < 31.6 nM
IC50 [5]: < 31.6 nM
IC50 [6]: < 31.6 nM
viability, T/C [7]: 102%
viability, T/C [8]: 88.7%
viability, T/C [9]: 88.1%
viability, T/C [10]: 88.1%
viability, T/C [11]: 93.2%
viability, T/C [12]: 73%
viability, T/C [13]: 93.1%
viability, T/C [14]: 88.2%
viability, T/C [15]: 94.4%
viability, T/C [16]: 93.6%
viability, T/C [17]: 87.8%
viability, T/C [18]: 62.3%
viability, T/C [19]: 59.7%
viability, T/C [20]: 67.1%
viability, T/C [21]: 57.5%
viability, T/C [22]: 52.6%
viability, T/C [23]: 47.8%
viability, T/C [24]: 31.2%
viability, T/C [25]: 18.3%
viability, T/C [26]: 18.1%
viability, T/C [27]: 14.9%
viability, T/C [28]: 12.3%
viability, T/C [29]: 11.1%
viability, T/C [30]: 10.9%
viability, T/C [31]: 6.24%
viability, T/C [32]: 4.28%
viability, T/C [33]: 3.7%
viability, T/C [34]: 4.23%
viability, T/C [35]: 7.04%
viability, T/C [36]: 4.1%
viability, T/C [37]: 1.93%
viability, T/C [38]: 4.05%
viability, T/C [39]: 1.66%
viability, T/C [40]: 2.03%
viability, T/C [41]: 2.92%
viability, T/C [42]: 2.49%

Cn1ncnc1[C@H]1c2n[nH]c(=O)c3cc(F)cc(c23)N[C@@H]1c1ccc(F)cc1 + Cc1nc(NC(=O)N2CCCC2C(N)=O)sc1-c1ccnc(C(C)(C)C(F)(F)F)c1
IC50 [3]: > 100 nM
IC50 [4]: > 100 nM
IC50 [5]: > 100 nM
IC50 [6]: > 100 nM
IC50 (curve of first compound, second compound 3.16 µM): 2.54 nM
IC50 (curve of first compound, second compound 10 µM): < 0.316 nM
viability, T/C (second compound 0.0316 µM, first compound 0.000316 µM): 86.8%
viability, T/C (second compound 0.0316 µM, first compound 0.001 µM): 82.2%
viability, T/C (second compound 0.0316 µM, first compound 0.00316 µM): 94.5%
viability, T/C (second compound 0.0316 µM, first compound 0.01 µM): 96.9%
viability, T/C [19]: 112%
viability, T/C [20]: 92.7%
viability, T/C (second compound 0.1 µM, first compound 0.000316 µM): 114%
viability, T/C (second compound 0.1 µM, first compound 0.001 µM): 99.6%
viability, T/C (second compound 0.1 µM, first compound 0.00316 µM): 97.1%
viability, T/C (second compound 0.1 µM, first compound 0.01 µM): 117%
viability, T/C [25]: 116%
viability, T/C [26]: 108%
viability, T/C (second compound 0.316 µM, first compound 0.000316 µM): 114%
viability, T/C (second compound 0.316 µM, first compound 0.001 µM): 113%
viability, T/C (second compound 0.316 µM, first compound 0.00316 µM): 112%
viability, T/C (second compound 0.316 µM, first compound 0.01 µM): 107%
viability, T/C [31]: 104%
viability, T/C [32]: 90.4%
viability, T/C (second compound 1 µM, first compound 0.000316 µM): 101%
viability, T/C (second compound 1 µM, first compound 0.001 µM): 94.9%
viability, T/C (second compound 1 µM, first compound 0.00316 µM): 99.9%
viability, T/C (second compound 1 µM, first compound 0.01 µM): 91.6%
viability, T/C [37]: 85.5%
viability, T/C [38]: 65.9%
viability, T/C (second compound 3.16 µM, first compound 0.000316 µM): 64.3%
viability, T/C (second compound 3.16 µM, first compound 0.001 µM): 52.7%
viability, T/C (second compound 3.16 µM, first compound 0.00316 µM): 45.9%
viability, T/C (second compound 3.16 µM, first compound 0.01 µM): 46.9%
viability, T/C (second compound 3.16 µM, first compound 0.0316 µM): 43.9%
viability, T/C (second compound 3.16 µM, first compound 0.1 µM): 33.6%
viability, T/C (second compound 10 µM, first compound 0.000316 µM): 13.6%
viability, T/C (second compound 10 µM, first compound 0.001 µM): 12%
viability, T/C (second compound 10 µM, first compound 0.00316 µM): 14.8%
viability, T/C (second compound 10 µM, first compound 0.01 µM): 17.4%
viability, T/C (second compound 10 µM, first compound 0.0316 µM): 11.3%
viability, T/C (second compound 10 µM, first compound 0.1 µM): 8.17%

CNC(=O)c1ccc(N2C(=S)N(c3ccc(C#N)c(C(F)(F)F)c3)C(=O)C2(C)C)cc1F
viability, T/C (compound 0.0316 µM): 100% [middle of 4 runs]
viability, T/C (compound 0.1 µM): 93.1% [middle of 4 runs]
viability, T/C (compound 0.316 µM): 100% [middle of 4 runs]
viability, T/C (compound 1 µM): 93% [middle of 4 runs]
viability, T/C (compound 3.16 µM): 101% and 104% (2×) and 94.4%
viability, T/C (compound 10 µM): 104% [middle of 4 runs]
IC50 (curve of compound): > 10000 nM
